Experimental data as given in US11661582B2, “Method for producing sinoatrial node cells (pacemaker cells) from stem cells, and use of the produced sinoatrial node cells” (UNIVERSITAET ROSTOCK, priority 2013, dated 2023).
“Also recorded” adds a separate entry of the source.

Key:
[1] = tested on: cells derived from iSABs (Myh6-TBX3 cells); assay: Ca2+ imaging (Fluo-4) of spontaneous Ca2+ transients and SR Ca2+ stores in iSAB-derived cells; type: cell-based, murine; details: for diastolic Ca2+ level: caffeine 10 mM, thapsigargin 2 μM; for frequency of spontaneous Ca2+ transients: 5 μM ZD 7288, 1 μM mibefradil, 1 μM nifedipine, 28° C.
[2] = tested on: cells derived from aCaBs; assay: Ca2+ imaging (Fluo-4) of SR Ca2+ stores in aCaB-derived control cells; type: cell-based, murine
[3] = tested on: cells originating from iSAB; assay: Single-cell patch-clamp, action potential rate of cells originating from iSAB; type: cell-based, murine; details: for AP rate: patch-clamp, 37° C.
Protocol: (§1) Spontaneous action potentials and currents of contracting cardiomyocytes were recorded at 37° C. in the perforated patch configuration using a MultiClamp 700B amplifier and pClamp10 software (Molecular Devices, Union City, USA). The offline data analysis was conducted with Clampfit software (Molecular Devices, Union City, USA) or by means of Origin 6.0 software (Microcal, Northampton, USA). […] The extracellular (bath) solution contained: 140 mM NaCl, 5.4 mM KCl, 1 mM MgCl2, 1.8 mM CaCl2, 5 mM HEPES, 5.5 mM glucose; the pH was adjusted to 7.4 with NaOH. For better recording of the If, in some cases, 2 mM BaCl2 and 0.3 mM CdCl2 were added to the bath solution in order to block IKl and ICa. If was measured by stepwise change proceeding from a hold potential of −40 mV to test potentials between −130 mV and +20 mV. The current amplitude after 3 seconds during the −130 mV pulse was divided by the cell capacitance in order to determine the current (If) density. To determine the If activation kinetics, the time constant of the activation (τ) was obtained by fitting the current trace of the −130 mV step after the initial delay with the sum of two exponential functions y=A1e1 ^−x/τ)+A2e2^(−x/τ), where τ1 and τ2 are fast and slow time constants for the activation; τ1 is accordingly referred to as τ, since the slow component (A2) of the HCN channel activation is generally <10% of the current amplitude. Isoproterenol or carbachol (Sigma, Taufkirchen, Germany) was dissolved directly in the bath solution on the day of the experiment and the cells were administered by means of a rapid exchange superfusion system. APs were recorded with a 10 kHz sampling rate. The analyses were conducted on the original traces. The inclination/slope of the linear fit of the distance from the MDP to the potential threshold is the DDR; the AP duration is the time from the threshold potential to the MDP.

[4] = tested on: isolated Tbx3-programmed cells (SA/AV pacemaker-type); assay: Single-cell patch-clamp, action potential rate of Tbx3-programmed cells; type: cell-based, murine; details: 37° C.
Protocol: For the further validation of the functionality and determination of the proportions of the subtypes of the cardiomyocytes, the electrophysiological properties were analyzed by the single-cell patch-clamp technique and the measurement of the density of the HCN (or funny) channels on day 18 of the differentiation as described [14] [16].
as §1, with “The inclination/slope of the linear fit of the distance from the MDP to the potential threshold is the DDR; the AP duration is the time from the threshold potential to the MDP.” left out

[5] = tested on: sinoatrial node cells produced in vitro from stem cells; assay: Beat frequency of stem-cell-derived sinoatrial node cells contacted with pharmaceuticals; type: cell-based, murine; details: sinoatrial node cells of the invention contacted with pharmaceuticals
[6] = tested on: murine ES cells; details: literature [9]; cited from earlier work

C/C=C(/C)C(=O)O[C@H]1C(C)=C2[C@H]([C@@H]1OC(=O)CCCCCCC)[C@@](C)(OC(C)=O)C[C@H](OC(=O)CCC)[C@@]1(O)[C@H]2OC(=O)[C@@]1(C)O [thapsigargin]
rate of intracellular Ca2+ accumulation with SERCA inhibition ([1]; Na+/Ca2+ exchanger blocked plus SERCA inhibition, vs. no SERCA inhibition, iSAB-derived cells): fourfold increase
diastolic Ca2+ level ([1]; iSAB-derived cells): increase in the Ca^2+ diastolic level; also recorded: increased diastolic Ca^2+ levels
reduction of caffeine Ca2+ peak (factor) ([1]; caffeine added 5 min after incubation with thapsigargin, iSAB-derived cells): 4
caffeine Ca2+ peak with and without SERCA inhibition ([2]; control cells (aCaB-derived)): remained identical
intracellular Ca2+ accumulation with SERCA inhibition ([2]; control cells (aCaB-derived)): impossible to detect any intracellular Ca^2+ accumulation

C[N+](C)(C)CCOC(N)=O [carbachol]
AP rate [3]: slowed
AP rate [4]: slowed
beat frequency [5]: significant reduction in beat frequency

COCC(=O)O[C@]1(CCN(C)CCCc2nc3ccccc3[nH]2)CCc2cc(F)ccc2[C@@H]1C(C)C [mibefradil]
frequency of spontaneous Ca2+ transients [1]: moderate decrease

Cn1c(=O)c2c(ncn2C)n(C)c1=O [caffeine]
caffeine-induced Ca2+ peak, sarcolemmal Ca2+ influx blocked ([1]; blockage of Na+/Ca2+ exchanger and Ca2+ channels, iSAB-derived cells compared to aCaB-derived cells): four times greater; also recorded: large caffeine peak
diastolic Ca2+ level ([1]; iSAB-derived cells): increased the diastolic Ca^2+ level
caffeine-induced effect on SR-Ca2+ release ([2]; caffeine 10 mM, aCaB-derived cells): No similar caffeine-induced effect

CCn1c(=O)[nH]c2ccccc21 [EBIO]
formation of node cells from murine ES cells [6]: enhances the formation of node cells

CCN(c1ccccc1)c1cc(=NC)n(C)c(C)n1.Cl [ZD 7288]
frequency of spontaneous Ca2+ transients [1]: reduced the frequency of the Ca^2+ transients
frequency of spontaneous Ca2+ transients ([1]; listed as ZD7288): decrease significantly
beat frequency [5]: significant reduction in beat frequency

CC(C)NCC(O)c1ccc(O)c(O)c1 (stereo not drawn) [isoproterenol]
AP rate [3]: accelerated
beat frequencies in response to isoprotenerol ([3]; range up to): up to 560 bpm
AP rate [4]: acceleration in the AP rate
AP rate ([4]; listed as isoprotenerol): accelerated
beat frequency [5]: increase in beat frequency
